Assay results from ChEMBL document CHEMBL5532720, “A Potent Solution for Tumor Growth and Angiogenesis Suppression via an ELR+CXCL-CXCR1/2 Pathway Inhibitor” (ACS Med Chem Lett, 2024).
The source made the active and inactive calls. No cut-off for these calls is given here.

Columns and labels:
CAL-27 = experiment: Antiproliferative activity against human CAL-27 cells incubated for 48 hrs by XTT assay; assay type: functional, cell-based; details: CAL-27, 48 h
[1] = Antiproliferative activity against human Cisplatin and radiotherapy resistant CAL27RR cells incubated for 48 hrs by XTT assay; assay type: functional, cell-based
RCC4 = experiment: Antiproliferative activity against human RCC4 cells incubated for 48 hrs by XTT assay; assay type: functional, cell-based; details: RCC4, 48 h
CAL-33 = experiment: Antiproliferative activity against human CAL-33 cells incubated for 48 hrs by XTT assay; assay type: functional, cell-based; details: CAL-33, 48 h
[2] = Antiproliferative activity against human Cisplatin and radiotherapy resistant CAL33RR cells incubated for 48 hrs by XTT assay; assay type: functional, cell-based
A498 [3] = experiment: Antiproliferative activity against human A498 cells incubated for 48 hrs by XTT assay; assay type: functional, cell-based; details: A498, 48 h
786-0 = experiment: Antiproliferative activity against human 786-0 cells incubated for 48 hrs by XTT assay; assay type: functional, cell-based; details: 786-0, 48 h
[4] = Antiproliferative activity against human Sunitinib-resistant 786-R cells incubated for 48 hrs by XTT assay; assay type: functional, cell-based
A498 [5] = experiment: Inhibition of cell invasion in human A498 cells cultured as 3D spheroids at 5 uM measured after 7 days by light microscopic imaging analysis; assay type: functional, cell-based; details: time 7.0 day
A498 [6] = experiment: Inhibition of CXCL8-induced cell migration in human A498 cells at 0.5 uM incubated for 24 hrs by crystal violet staining based analysis relative to control; assay type: functional
A498 [7] = experiment: Inhibition of cell invasion in human A498 cells cultured as 3D spheroids at 5 uM measured after 7 days by light microscopic imaging analysis relative to control; assay type: functional; details: A498, 168 h, time 7 day

With `COc1ccc(NC(=O)Nc2nc3ccc([N+](=O)[O-])cc3s2)cc1` as the molecule, how does the IC50 (CAL-27) read?
Its IC50 is > 25 µM.

And the IC50 [1]?
The IC50 was > 25 µM.

And the IC50 (RCC4)?
The IC50 was 20 µM.

What about the IC50 (CAL-33) of the same molecule?
The IC50 was > 25 µM.

What about the IC50 [2] of the same molecule?
Its IC50 is > 25 µM.

What about the IC50 (A498 [3]) of the same molecule?
Its IC50 is 20 µM.

And the IC50 (786-0)?
The IC50 was 25 µM.

What about the IC50 [4] of the same molecule?
The IC50 was 25 µM.

What does the source list for `O=C(Nc1cccc(Cl)c1)Nc1nc2ccc([N+](=O)[O-])cc2o1`?
IC50 (CAL-27): > 25 µM; IC50 [1]: > 25 µM; IC50 (RCC4): 25 µM; IC50 (CAL-33): > 25 µM; IC50 [2]: 12 µM; IC50 (A498 [3]): 22 µM; IC50 (786-0): 20 µM; IC50 [4]: > 25 µM

Which results are given for `Cc1nn(C)cc1-c1ccc2nc(NC(=O)Nc3cccc(Cl)c3)sc2c1`?
IC50 (CAL-27): 7 µM; IC50 [1]: 6 µM; inhibition (A498 [5]): Active; IC50 (RCC4): 8 µM; IC50 (CAL-33): 6 µM; IC50 [2]: 7 µM; IC50 (A498 [3]): 5 µM; IC50 (786-0): 4 µM; IC50 [4]: 8 µM

With `CCOc1ccc2nc(NC(=O)Nc3cc(Cl)cc(Cl)c3)sc2c1` as the molecule, how does the IC50 (CAL-27) read?
The IC50 was > 25 µM.

What about the IC50 [1] of the same molecule?
The IC50 was 20 µM.

And the IC50 (RCC4)?
Its IC50 is > 25 µM.

What about the IC50 (CAL-33) of the same molecule?
The IC50 was 15 µM.

What about the IC50 [2] of the same molecule?
Its IC50 is > 25 µM.

What about the IC50 (A498 [3]) of the same molecule?
The IC50 was > 25 µM.

What about the IC50 (786-0) of the same molecule?
Its IC50 is > 25 µM.

And the IC50 [4]?
Its IC50 is > 25 µM.

Which results are given for `O=C(Nc1cccc(Cl)c1)Nc1nc2ccc([N+](=O)[O-])cc2s1`?
IC50 (CAL-27): 3 µM; IC50 [1]: 2 µM; inhibition at 0.5 µM (A498 [6]): > 50%; IC50 (RCC4): 5 µM; IC50 (CAL-33): 2 µM; IC50 [2]: 3 µM; IC50 [4]: 2.5 µM; inhibition at 5 µM (A498 [7]): > 75%

For `CS(=O)(=O)Nc1ccc2nc(NC(=O)Nc3cccc(Cl)c3)sc2c1`, which IC50 (CAL-27) is on record?
The IC50 was > 25 µM.

And the IC50 [1]?
Its IC50 is > 25 µM.

What about the IC50 (RCC4) of the same molecule?
Its IC50 is > 25 µM.

What about the IC50 (CAL-33) of the same molecule?
The IC50 was > 25 µM.

What about the IC50 [2] of the same molecule?
Its IC50 is > 25 µM.

And the IC50 (A498 [3])?
The IC50 was > 25 µM.

And the IC50 (786-0)?
The IC50 was > 25 µM.

And the IC50 [4]?
The IC50 was > 25 µM.

Which IC50 (CAL-27) does the source give for `O=C(Nc1ccccc1)Nc1nc2cc([N+](=O)[O-])ccc2[nH]1` here?
The IC50 was > 25 µM.

And the IC50 [1]?
Its IC50 is 15 µM.

What about the IC50 (RCC4) of the same molecule?
Its IC50 is > 25 µM.

What about the IC50 (CAL-33) of the same molecule?
The IC50 was 20 µM.

And the IC50 [2]?
Its IC50 is > 25 µM.

What about the IC50 (A498 [3]) of the same molecule?
Its IC50 is 25 µM.

What about the IC50 (786-0) of the same molecule?
The IC50 was 25 µM.

What about the IC50 [4] of the same molecule?
Its IC50 is > 25 µM.

With `O=C(Nc1cccc(Cl)c1)Nc1nc2cc([N+](=O)[O-])ccc2[nH]1` as the molecule, how does the IC50 (CAL-27) read?
Its IC50 is 25 µM.

And the IC50 [1]?
The IC50 was 10 µM.

And the IC50 (RCC4)?
The IC50 was 3 µM.

And the IC50 (CAL-33)?
Its IC50 is 15 µM.

What about the IC50 [2] of the same molecule?
Its IC50 is 25 µM.

And the IC50 (A498 [3])?
The IC50 was 8 µM.

And the IC50 (786-0)?
The IC50 was 4 µM.

And the IC50 [4]?
The IC50 was 4 µM.

With `O=C(Nc1cccc(Cl)c1)Nc1nc2ccc(-c3ccoc3)cc2s1` as the molecule, how does the IC50 (CAL-27) read?
The IC50 was > 10 µM.

What about the IC50 [1] of the same molecule?
Its IC50 is > 10 µM.

And the IC50 (RCC4)?
The IC50 was > 10 µM.

And the IC50 (CAL-33)?
The IC50 was > 10 µM.

And the IC50 [2]?
Its IC50 is > 10 µM.

What about the IC50 (A498 [3]) of the same molecule?
Its IC50 is > 10 µM.

What about the IC50 (786-0) of the same molecule?
The IC50 was > 10 µM.

And the IC50 [4]?
Its IC50 is > 10 µM.

With `Cc1ccc(NC(=O)Nc2nc3ccc([N+](=O)[O-])cc3s2)cc1` as the molecule, how does the IC50 (CAL-27) read?
The IC50 was 7 µM.

What about the IC50 [1] of the same molecule?
The IC50 was 4 µM.

What about the IC50 (RCC4) of the same molecule?
The IC50 was 10 µM.

What about the IC50 (CAL-33) of the same molecule?
Its IC50 is 7 µM.

What about the IC50 [2] of the same molecule?
Its IC50 is 7 µM.

What about the IC50 (A498 [3]) of the same molecule?
The IC50 was 15 µM.

And the IC50 (786-0)?
The IC50 was 5 µM.

What about the IC50 [4] of the same molecule?
Its IC50 is 5 µM.

Which IC50 (CAL-27) does the source give for `O=C(Nc1cccc(Cl)c1)Nc1nc2ccc(Br)cc2s1` here?
Its IC50 is > 25 µM.

What about the IC50 [1] of the same molecule?
Its IC50 is > 25 µM.

What about the IC50 (RCC4) of the same molecule?
Its IC50 is > 25 µM.

And the IC50 (CAL-33)?
Its IC50 is > 25 µM.

And the IC50 [2]?
The IC50 was > 25 µM.

And the IC50 (A498 [3])?
The IC50 was > 25 µM.

And the IC50 (786-0)?
Its IC50 is > 25 µM.

What about the IC50 [4] of the same molecule?
Its IC50 is > 25 µM.

What does the source list for `O=C(Nc1cccc(Cl)c1)Nc1nc2ccc(-c3ccccn3)cc2s1`?
IC50 (CAL-27): > 25 µM; IC50 [1]: > 25 µM; IC50 (RCC4): 25 µM; IC50 (CAL-33): > 25 µM; IC50 [2]: > 25 µM; IC50 (A498 [3]): 12 µM; IC50 (786-0): 15 µM; IC50 [4]: 8 µM

Which IC50 (CAL-27) does the source give for `CC(=O)Nc1ccc2nc(NC(=O)Nc3cccc(Cl)c3)sc2c1` here?
Its IC50 is > 25 µM.

What about the IC50 [1] of the same molecule?
The IC50 was 7 µM.

And the IC50 (RCC4)?
Its IC50 is > 25 µM.

What about the IC50 (CAL-33) of the same molecule?
The IC50 was 20 µM.

And the IC50 [2]?
Its IC50 is > 25 µM.

What about the IC50 (A498 [3]) of the same molecule?
The IC50 was 25 µM.

And the IC50 (786-0)?
The IC50 was > 25 µM.

What about the IC50 [4] of the same molecule?
Its IC50 is 25 µM.

With `O=C(Nc1ccccc1)Nc1nc2cc([N+](=O)[O-])ccc2o1` as the molecule, how does the IC50 (CAL-27) read?
The IC50 was > 25 µM.

And the IC50 [1]?
The IC50 was > 25 µM.

What about the IC50 (RCC4) of the same molecule?
Its IC50 is > 25 µM.

And the IC50 (CAL-33)?
Its IC50 is > 25 µM.

What about the IC50 [2] of the same molecule?
Its IC50 is > 25 µM.

What about the IC50 (A498 [3]) of the same molecule?
The IC50 was > 25 µM.

And the IC50 (786-0)?
Its IC50 is > 25 µM.

What about the IC50 [4] of the same molecule?
Its IC50 is > 25 µM.

Which results are given for `CCOc1ccc2nc(NC(=O)Nc3cccc(Cl)c3)sc2c1`?
IC50 (CAL-27): > 25 µM; IC50 [1]: 20 µM; IC50 (RCC4): > 25 µM; IC50 (CAL-33): 4 µM; IC50 [2]: > 25 µM; IC50 (A498 [3]): > 25 µM; IC50 (786-0): > 25 µM; IC50 [4]: > 25 µM
